Data: patent publication EP4585606A1, “OL[…] USE AND COMPOSITION THEREOF” (Buddhist Tzu Chi Medical Foundation, priority 2022, dated 2024)

Tested on: human osteoblastic cells hFOB1.19
Assay: alkaline phosphatase (ALP) activity, TRACP & ALP detection kit
Assay type: cell-based
Conditions: hFOB1.19 not treated with the oligopeptides, CaCl2 0.01, 0.06, 0.2, 0.9 and 3.6 µM, 2 days
Description: The activity of alkaline phosphatase was measured by a TRACP & ALP detection kit. hFOB1.19 cells were cultured at 2×10^4 cells/well in a 96-well plate for 2 days. After removing the supernatant of the culture, the cells were resuspended in physiological saline. To each well 50 µl of the extract solution was added, and incubated at room temperature for 5 minutes. Then, 50 µl of the matrix solution was added to each well and reacted at 37°C for 60 minutes. Finally, 50 µl of 0.5N NaOH was added to each well to terminate the reaction. After formation of color, the solution was measured for the absorbance at 405 nm.
Alkaline phosphatase is present in bone at a high level, and frequently considered as the indicator for differentiation of osteoblastic cells and growth of bone. In Example 6, human osteoblastic cells hFOB1.19 was not treated with the oligopeptide at the condition of different concentrations of CaCl2, and was treated with the four oligopeptides (0.45 µM) described above at the condition of 3.6 µM CaCl2 for 2 days, to detect the ALP activities in human osteoblastic cells hFOB1.19. […] (In FIGs. 6A and 6B, three separate experiments were performed for each group, and the data were expressed by mean ± SD. Statistical significance: by one-tailed test, *P < 0.05, in respect to the Control groups (A-D).

## [Ca+2].[Cl-].[Cl-] [CaCl2]
  ALP activities: no significant change
